Experiment [1] has as its target T1, CDK2/CycE (Homo sapiens, UniProt P24941).
T1 construct: purchased ProQinase GmbH (Freiburg, Germany); host or cells: insect cells (Sf9)
Put plainly: CDK2/CycE kinase assay (TR-FRET, 2 mM ATP). Type of experiment: biochemical. To be noted: 2 mM ATP (high ATP); median; read-out: CDK2/CyclinE, 2 mM ATP (high ATP), IC50 (median). A digest of the protocol: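 GST-tagged human CDK2 and CycE from Sf9 cells, about 10 ng/ml, pre-incubated 15 min at 22 °C with compound in Tris/HCl pH 8.0 buffer. Reaction with 2 mM ATP and 0.75 µM biotinylated peptide for 25 min at 22 °C. Phospho-RB antibody TR-FRET (665/620 nm ratio) read after 1 h; data normalised to no-inhibitor and no-enzyme controls.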
Background: TR-FRET usually uses a lanthanide donor and a delayed reading to cut background.

The test system of experiment [2] is CAL-120, human breast adenocarcinoma cells. The experiment in a line: Proliferation assay CAL-120 (crystal violet, 4 days). Type of experiment: cell-based. To be noted: Homo sapiens, CAL-120, 96 h, CAL-120 cells, median, read-out: Prolif-CAL-120, IC50-[mol/l] (median). A digest of the protocol:
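Cells seeded at 4,000/well in medium with 10% FCS; after 24 h, compounds added at 0.01-10 µmol/L (0.1% DMSO) for 4 days. Glutaraldehyde-fixed, crystal violet-stained, absorbance at 595 nm normalized to zero-point plate (0%) and untreated cells (100%); IC50 by 4-parameter fit.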

`CN(CC(C)(C)O)c1nc(NCc2nc3c(F)c(Cl)ccc3[nH]2)n2ncc(C3CC3)c2n1` [Example 387, 1-[(4-{[(5-chloro-4-fluoro-1H-benzimidazol-2-yl)methyl]amino}-8-cyclopropylpyrazolo[1,5-a][1,3,5]triazin-2-yl)(methyl)amino]-2-methylpropan-2-ol]: the IC50 in experiment [1] came to 5350 nM; in experiment [2] it was 4.95 nM.
As for `Cc1cc2nc(CNc3nc(N4CCOCC4)nc4c(C5CC5)cnn34)[nH]c2cc1C` [Example 320, 8-cyclopropyl-N-[(5,6-dimethyl-1H-benzimidazol-2-yl)methyl]-2-(morpholin-4-yl)pyrazolo[1,5-a][1,3,5]triazin-4-amine], the IC50 in experiment [1] turned out to be 4710 nM; in experiment [2], 4.24 nM.
For `Fc1cccc2[nH]c(CNc3nc(N4CCOCC4)nc4c(Cl)cnn34)nc12` [Example 361, 8-chloro-N-[(4-fluoro-1H-benzimidazol-2-yl)methyl]-2-(morpholin-4-yl)pyrazolo[1,5-a][1,3,5]triazin-4-amine], the IC50 is 4340 nM in experiment [1] and 6.73 nM in experiment [2].
On the same counts, the results for `CN(CC(C)(C)O)c1nc(NCc2nc3cc(C(F)(F)F)ccc3[nH]2)n2ncc(Br)c2n1` [Example 345, 1-{[8-bromo-4-({[5-(trifluoromethyl)-1H-benzimidazol-2-yl]methyl}amino)pyrazolo[1,5-a][1,3,5]triazin-2-yl](methyl)amino}-2-methylpropan-2-ol] are 6070 nM and 3.05 nM.
The like results for `CC[C@@H](CO)Nc1nc(NCc2nc3ccccc3[nH]2)n2ncc(Br)c2n1` [Example 367, (2S)-2-[(4-{[(1H-benzimidazol-2-yl)methyl]amino}-8-bromopyrazolo[1,5-a][1,3,5]triazin-2-yl)amino]butan-1-ol] were, in that order, 573 nM and 31.4 nM.
The like results for `FC(F)(F)c1ccc2[nH]c(CNc3nc(N4CCOCC4)nc4c(C5CC5)cnn34)nc2c1` [Example 322, 8-cyclopropyl-2-(morpholin-4-yl)-N-{[5-(trifluoromethyl)-1H-benzimidazol-2-yl]methyl}pyrazolo[1,5-a][1,3,5]triazin-4-amine] were, in that order, greater than 20000 nM and 7.97 nM.
As to `CN(CC(C)(C)O)c1nc(NCc2nc3cc(OC(F)(F)F)ccc3[nH]2)n2ncc(Br)c2n1` [Example 378, 1-{[8-bromo-4-({[5-(trifluoromethoxy)-1H-benzimidazol-2-yl]methyl}amino)pyrazolo[1,5-a][1,3,5]triazin-2-yl](methyl)amino}-2-methylpropan-2-ol], the figures for the IC50 in experiment [1] and in experiment [2] were 8110 nM and 41.5 nM, respectively.
Turning to `CN(CC(C)(C)O)c1nc(NCc2nc3c(F)cccc3[nH]2)n2ncc(Cl)c2n1` [Example 366, 1-[(8-chloro-4-{[(4-fluoro-1H-benzimidazol-2-yl)methyl]amino}pyrazolo[1,5-a][1,3,5]triazin-2-yl)(methyl)amino]-2-methylpropan-2-ol], the IC50 in experiment [1] stood at 5570 nM; in experiment [2], 31.3 nM.
The like results for `Cc1cc2nc(CNc3nc(N4CC5CCC(C4)N5)nc4c(C5CC5)cnn34)[nH]c2cc1C` [Example 326, 8-cyclopropyl-2-(3,8-diazabicyclo[3.2.1]octan-3-yl)-N-[(5,6-dimethyl-1H-benzimidazol-2-yl)methyl]pyrazolo[1,5-a][1,5]triazin-4-amine] were, in that order, 4140 nM and 1.25 nM.
`Fc1cc(F)cc(-c2nnc(CNc3nc(N4CCOCC4)nc4c(C(F)(F)F)cnn34)[nH]2)c1` [Example 386, N-{[5-(3,5-difluorophenyl)-4H-1,2,4-triazol-3-yl]methyl}-2-(morpholin-4-yl)-8-(trifluoromethyl)pyrazolo[1,5-a][1,3,5]triazin-4-amine]: the values for the IC50 in experiment [1] and in experiment [2] were 1450 nM and 12.5 nM, respectively.
`Fc1cc2nc(CNc3nc(N4CC5CCC(C4)N5)nc4c(Br)cnn34)[nH]c2cc1F` [Example 355, 8-bromo-2-(3,8-diazabicyclo[3.2.1]octan-3-yl)-N-[(5,6-difluoro-1H-benzimidazol-2-yl)methyl]pyrazolo[1,5-a][1,3,5]triazin-4-amine]: the IC50 in experiment [1] was greater than 18600 nM; in experiment [2], 2.2 nM.
Regarding `Fc1ccc(-c2nnc(CNc3nc(N4CCOCC4)nc4c(Br)cnn34)[nH]2)cc1` [Example 29, 8-bromo-N-{[5-(4-fluorophenyl)-4H-1,2,4-triazol-3-yl]methyl}-2-(morpholin-4-yl)pyrazolo[1,5-a][1,3,5]triazin-4-amine], the IC50 in experiment [1] came to 3080 nM; in experiment [2], 170 nM.
In the case of `CN1CCN(c2nc(NCc3nc4cc(F)c(Cl)cc4[nH]3)n3ncc(Br)c3n2)CC1` [Example 337, 8-bromo-N-[(6-chloro-5-fluoro-1H-benzimidazol-2-yl)methyl]-2-(4-methylpiperazin-1-yl)pyrazolo[1,5-a][1,3,5]triazin-4-amine], the IC50 worked out at 17800 nM in experiment [1] and 2.04 nM in experiment [2].
As to `FC(F)(F)c1ccc2[nH]c(CNc3nc(N4CCOCC4)nc4c(Br)cnn34)nc2c1` [Example 339, 8-bromo-2-(morpholin-4-yl)-N-{[5-(trifluoromethyl)-1H-benzimidazol-2-yl]methyl}pyrazolo[1,5-a][1,3,5]triazin-4-amine], the IC50 worked out at 6740 nM in experiment [1] and 4.79 nM in experiment [2].
The like results for `Fc1cc2nc(CNc3nc(N4CCOCC4)nc4c(Br)cnn34)[nH]c2cc1F` [Example 341, 8-bromo-N-[(5,6-difluoro-1H-benzimidazol-2-yl)methyl]-2-(morpholin-4-yl)pyrazolo[1,5-a][1,3,5]triazin-4-amine] were, in that order, 9360 nM and less than 0.1 nM.
In the case of `Clc1cc2nc(CNc3nc(N4CC5CCC(C4)N5)nc4c(Br)cnn34)[nH]c2cc1Cl` [Example 334, 8-bromo-2-(3,8-diazabicyclo[3.2.1]octan-3-yl)-N-[(5,6-dichloro-1H-benzimidazol-2-yl)methyl]pyrazolo[1,5-a][1,3,5]triazin-4-amine], the IC50 in experiment [1] was determined as 10500 nM; in experiment [2] it was 1.72 nM.
On the same counts, the results for `Fc1cc2nc(CNc3nc(N4CCOCC4)nc4c(Br)cnn34)[nH]c2cc1Cl` [Example 336, 8-bromo-N-[(6-chloro-5-fluoro-1H-benzimidazol-2-yl)methyl]-2-(morpholin-4-yl)pyrazolo[1,5-a][1,3,5]triazin-4-amine] are 8950 nM and 3.21 nM.
The like results for `CC(C)c1cnn2c(NCc3ncc(-c4ccccc4)[nH]3)nc(N3CCN(C)CC3)nc12` [Example 31, 2-(4-methylpiperazin-1-yl)-N-[(5-phenyl-1H-imidazol-2-yl)methyl]-8-(propan-2-yl)pyrazolo[1,5-a][1,3,5]triazin-4-amine] were, in that order, 17500 nM and 21 nM.
The like results for `CN1CCN(c2nc(NCc3nc4cc(OC(F)(F)F)ccc4[nH]3)n3ncc(Br)c3n2)CC1` [Example 377, 8-bromo-2-(4-methylpiperazin-1-yl)-N-{[5-(trifluoromethoxy)-1H-benzimidazol-2-yl]methyl}pyrazolo[1,5-a][1,3,5]triazin-4-amine] were, in that order, 17100 nM and 79.3 nM.
On to `CN(CC(C)(C)O)c1nc(NCc2nc3cc(Cl)c(Cl)cc3[nH]2)n2ncc(Br)c2n1` [Example 331, 1-[(8-bromo-4-{[(5,6-dichloro-1H-benzimidazol-2-yl)methyl]amino}pyrazolo[1,5-a][1,3,5]triazin-2-yl)(methyl)amino]-2-methylpropan-2-ol], for which the IC50 in experiment [1] was 7310 nM; in experiment [2], 3.08 nM.

The values above are taken from US20230117034A1, “PYRAZOLOTRIAZINES” (Bayer Aktiengesellschaft, priority 2019, published 2023).
